Test results: patent publication US9309242B2, “Substituted pyrido[2,3-b]pyrazines as FGFR kinase inhibitors” (priority 2011, dated 2016)
pIC50: −log10 of the molar value.

Legend:
FGFR1 (h) = FGFR1 (h) (Homo sapiens, UniProt P11362); test: FGFR1 (enzymatic assay), TR-FRET; assay type: biochemical; details: read-out: FGFR 1 pIC50 (converted)
FGFR2 (h) = FGFR2 (h) (Homo sapiens, UniProt P21802); test: FGFR2 (enzymatic assay), TR-FRET; assay type: biochemical; details: enzymatic assay; read-out: FGFR 2 pIC50 (converted)
Summary of the method: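 Compound (1% DMSO final) was combined with FGFR2 (h), 150 ng/ml, plus 0.4 μM ATP and 500 nM biotin-Flt3 in Mn2+-containing HEPES buffer at pH 7.5.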

FGFR3 (h) = FGFR3 (h) (Homo sapiens, UniProt P22607); test: FGFR3 (enzymatic assay), TR-FRET; assay type: biochemical; details: read-out: FGFR 3 pIC50 (converted)
Text: Time-Resolved Fluorescence Resonance Energy Transfer (TR-FRET) signal (ex340 nm.

FGFR4 (h) = FGFR4 (h) (Homo sapiens, UniProt P22455); test: FGFR4 (enzymatic assay), TR-FRET; assay type: biochemical; details: FGFR 4 pIC50, enzymatic assay
[1] = target: T1, Ba/F3-FGFR1-transfected cells (Homo sapiens, UniProt P11362); test: Ba/F3-FGFR1 (minus IL3) cellular proliferation assay, Alamar Blue; assay type: cell-based
T1 construct: BAF3-FGFR1 (MIN IL3) pIC50; other: minus IL3
Summary of the method: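 Viability of transfected Ba/F3-FGFR1 cells (20000 per well, RPMI-1640 with 10% FBS and 2 mM L-glutamine) was scored by resazurin-based Alamar Blue reduction over 4 h, after 24 h treatment with compound at 37 °C under 5% CO2.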

[2] = tested on: Ba/F3-KDR-transfected cells; test: Ba/F3-KDR (plus IL3) cellular proliferation assay, counterscreen with 10 ng/ml murine IL3; assay type: cell-based; details: plus IL3 (10 ng/ml murine IL3, counterscreen); read-out: BAF3-KDR (PLUS IL3) pIC50 (converted)
Summary of the method: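 Ba/F3-KDR-transfected cells, 20000 per well in phenol red free RPMI-1640 with 10% FBS, exposed to compound 24 hours at 37° C, 5% CO2; Alamar Blue then added for 4 hours and fluorescence read (ex. 540 nm, em. 590 nm). Plus-IL3 counterscreen run identically with 10 ng/ml murine IL3.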

Chain of FGFR1 (h) (P11362 22-822): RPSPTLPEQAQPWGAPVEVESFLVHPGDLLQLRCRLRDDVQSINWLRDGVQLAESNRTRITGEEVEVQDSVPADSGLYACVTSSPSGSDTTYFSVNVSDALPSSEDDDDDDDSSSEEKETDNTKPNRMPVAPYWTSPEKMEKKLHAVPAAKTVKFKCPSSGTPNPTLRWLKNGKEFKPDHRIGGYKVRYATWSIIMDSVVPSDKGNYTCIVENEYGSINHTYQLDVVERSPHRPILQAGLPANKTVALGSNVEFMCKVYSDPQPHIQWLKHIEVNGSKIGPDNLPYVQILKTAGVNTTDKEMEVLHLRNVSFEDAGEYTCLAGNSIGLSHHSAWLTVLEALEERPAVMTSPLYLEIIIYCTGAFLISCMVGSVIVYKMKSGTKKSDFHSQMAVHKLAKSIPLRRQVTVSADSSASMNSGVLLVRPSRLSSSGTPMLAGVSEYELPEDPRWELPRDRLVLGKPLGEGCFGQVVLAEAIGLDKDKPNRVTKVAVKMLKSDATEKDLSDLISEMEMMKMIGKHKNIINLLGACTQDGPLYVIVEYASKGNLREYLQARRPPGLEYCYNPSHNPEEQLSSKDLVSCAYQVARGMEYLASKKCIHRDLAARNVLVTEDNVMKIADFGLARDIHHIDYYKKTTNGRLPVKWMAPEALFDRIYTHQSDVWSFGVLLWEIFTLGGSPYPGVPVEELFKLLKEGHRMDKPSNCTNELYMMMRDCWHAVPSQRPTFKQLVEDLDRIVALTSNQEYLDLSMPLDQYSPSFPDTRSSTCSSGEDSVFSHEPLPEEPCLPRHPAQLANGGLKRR
Chain of FGFR4 (h) (P22455 22-802): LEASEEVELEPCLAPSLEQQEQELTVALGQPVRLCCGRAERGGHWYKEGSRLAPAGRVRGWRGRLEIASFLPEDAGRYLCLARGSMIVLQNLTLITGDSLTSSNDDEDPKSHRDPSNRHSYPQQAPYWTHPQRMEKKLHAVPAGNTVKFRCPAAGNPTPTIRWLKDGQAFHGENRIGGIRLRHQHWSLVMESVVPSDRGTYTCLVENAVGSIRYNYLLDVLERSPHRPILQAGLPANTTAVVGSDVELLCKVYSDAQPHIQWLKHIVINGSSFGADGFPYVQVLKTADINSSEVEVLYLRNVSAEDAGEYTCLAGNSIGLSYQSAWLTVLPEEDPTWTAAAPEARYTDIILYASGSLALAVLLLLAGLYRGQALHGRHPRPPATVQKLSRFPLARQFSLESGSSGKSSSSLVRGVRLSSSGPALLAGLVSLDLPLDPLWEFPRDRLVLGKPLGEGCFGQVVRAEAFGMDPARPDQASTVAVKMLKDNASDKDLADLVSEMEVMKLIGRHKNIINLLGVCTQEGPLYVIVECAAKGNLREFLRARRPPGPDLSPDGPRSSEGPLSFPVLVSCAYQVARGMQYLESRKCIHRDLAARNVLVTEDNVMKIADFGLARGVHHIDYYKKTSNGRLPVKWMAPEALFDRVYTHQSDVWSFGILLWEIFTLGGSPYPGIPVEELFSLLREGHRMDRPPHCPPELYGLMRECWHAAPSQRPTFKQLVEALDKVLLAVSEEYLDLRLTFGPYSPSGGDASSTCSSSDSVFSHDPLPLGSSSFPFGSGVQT
Chain of FGFR3 (h) (P22607 23-806): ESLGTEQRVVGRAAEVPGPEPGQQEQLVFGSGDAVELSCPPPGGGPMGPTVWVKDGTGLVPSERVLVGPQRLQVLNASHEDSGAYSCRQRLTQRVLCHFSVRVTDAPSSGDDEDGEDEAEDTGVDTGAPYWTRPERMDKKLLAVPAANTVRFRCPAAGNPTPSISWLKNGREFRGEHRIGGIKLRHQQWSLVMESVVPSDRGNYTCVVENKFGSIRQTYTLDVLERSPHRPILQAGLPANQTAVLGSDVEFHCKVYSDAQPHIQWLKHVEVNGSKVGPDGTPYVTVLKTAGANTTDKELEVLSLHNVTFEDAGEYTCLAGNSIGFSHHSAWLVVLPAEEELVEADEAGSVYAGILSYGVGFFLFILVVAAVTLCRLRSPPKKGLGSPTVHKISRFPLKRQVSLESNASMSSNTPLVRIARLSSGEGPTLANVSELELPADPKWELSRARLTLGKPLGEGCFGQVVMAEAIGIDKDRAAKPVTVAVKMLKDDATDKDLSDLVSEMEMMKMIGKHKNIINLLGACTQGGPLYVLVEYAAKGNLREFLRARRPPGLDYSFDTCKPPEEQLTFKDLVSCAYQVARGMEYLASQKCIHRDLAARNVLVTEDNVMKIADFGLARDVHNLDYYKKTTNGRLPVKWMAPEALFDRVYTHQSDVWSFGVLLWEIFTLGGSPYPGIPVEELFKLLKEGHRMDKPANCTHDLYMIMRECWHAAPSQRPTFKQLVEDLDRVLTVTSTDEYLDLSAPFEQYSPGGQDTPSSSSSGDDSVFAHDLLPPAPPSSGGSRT
Chain of FGFR2 (h) (P21802 22-821): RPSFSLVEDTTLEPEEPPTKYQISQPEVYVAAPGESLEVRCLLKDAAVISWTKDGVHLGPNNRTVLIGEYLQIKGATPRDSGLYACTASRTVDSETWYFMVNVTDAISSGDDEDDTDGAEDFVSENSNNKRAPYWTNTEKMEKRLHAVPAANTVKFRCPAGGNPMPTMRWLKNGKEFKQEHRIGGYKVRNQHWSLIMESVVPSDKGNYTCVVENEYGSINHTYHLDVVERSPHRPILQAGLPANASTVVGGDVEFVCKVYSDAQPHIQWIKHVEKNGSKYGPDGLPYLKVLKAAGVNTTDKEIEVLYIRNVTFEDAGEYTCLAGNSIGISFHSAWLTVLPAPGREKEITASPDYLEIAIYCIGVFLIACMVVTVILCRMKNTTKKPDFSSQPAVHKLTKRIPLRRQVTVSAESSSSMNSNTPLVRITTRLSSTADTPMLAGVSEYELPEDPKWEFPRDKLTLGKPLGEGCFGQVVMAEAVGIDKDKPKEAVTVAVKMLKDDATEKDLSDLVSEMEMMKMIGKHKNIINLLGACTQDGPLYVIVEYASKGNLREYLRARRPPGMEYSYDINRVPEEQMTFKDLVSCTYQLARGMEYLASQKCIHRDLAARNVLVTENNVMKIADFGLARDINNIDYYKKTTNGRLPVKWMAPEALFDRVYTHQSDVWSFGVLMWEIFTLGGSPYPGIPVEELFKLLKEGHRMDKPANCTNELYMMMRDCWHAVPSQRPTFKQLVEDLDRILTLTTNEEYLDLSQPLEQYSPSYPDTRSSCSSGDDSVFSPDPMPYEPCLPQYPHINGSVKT
T1 sequence (P11362 whole entry, change not shown): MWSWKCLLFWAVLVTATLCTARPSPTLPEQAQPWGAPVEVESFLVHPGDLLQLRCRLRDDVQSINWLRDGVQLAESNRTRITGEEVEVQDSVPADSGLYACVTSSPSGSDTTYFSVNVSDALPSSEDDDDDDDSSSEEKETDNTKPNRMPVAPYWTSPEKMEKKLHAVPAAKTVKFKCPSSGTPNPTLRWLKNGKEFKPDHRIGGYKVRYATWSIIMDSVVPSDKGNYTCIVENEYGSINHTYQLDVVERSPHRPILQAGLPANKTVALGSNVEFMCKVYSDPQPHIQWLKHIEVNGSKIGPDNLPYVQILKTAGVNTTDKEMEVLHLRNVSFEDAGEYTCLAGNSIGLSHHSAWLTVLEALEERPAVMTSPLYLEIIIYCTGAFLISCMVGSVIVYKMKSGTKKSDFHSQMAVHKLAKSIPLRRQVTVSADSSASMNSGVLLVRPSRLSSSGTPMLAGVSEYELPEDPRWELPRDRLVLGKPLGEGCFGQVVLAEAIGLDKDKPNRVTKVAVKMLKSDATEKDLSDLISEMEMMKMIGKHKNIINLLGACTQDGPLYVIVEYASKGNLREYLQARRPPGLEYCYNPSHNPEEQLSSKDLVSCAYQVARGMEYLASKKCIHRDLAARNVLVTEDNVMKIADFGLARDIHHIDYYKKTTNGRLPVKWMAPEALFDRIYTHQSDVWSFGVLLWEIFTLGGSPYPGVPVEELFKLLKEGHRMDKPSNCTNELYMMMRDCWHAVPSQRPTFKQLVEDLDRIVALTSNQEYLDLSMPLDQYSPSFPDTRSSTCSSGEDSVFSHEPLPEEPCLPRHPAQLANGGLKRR

Row | SMILES | IC50 (FGFR1 (h)) | IC50 (FGFR2 (h)) | IC50 (FGFR3 (h)) | pIC50 (FGFR4 (h)) | BAF3-FGFR1 (MIN IL3) pIC50 [1] | IC50 [2]
1 | COc1ccc(Cl)c(N(CC2CCC(=O)N2)c2ccc3ncc(-c4cnn(C)c4)nc3n2)c1Cl (single isomer, unassigned) [Compound 90] | 166 nM | 129 nM | 126 nM | ~6.04 | 5.04 | > 10000 nM
2 | COc1cc(OC)c(F)c(N(CCN(C2COC2)C2COC2)c2ccc3ncc(-c4cnn(C)c4)nc3n2)c1F (single isomer, unassigned) [Compound 163] | 0.977 nM | 1.91 nM | 2.63 nM | 8.49 | 7.82 | > 10000 nM
3 | COc1cc(OC)c(F)c(N(CC2CCOC2)c2ccc3ncc(-c4cnn(C)c4)nc3n2)c1 (single isomer, unassigned) [Compound 170] | 2.34 nM | 2.14 nM | 2.19 nM | 8.31 | 6.92 | > 10000 nM
4 | COc1cc(OC)c(F)c(N(CC(C)(C)O)c2ccc3ncc(-c4cnn(CC(C)(C)O)c4)nc3n2)c1 (single isomer, unassigned) [Compound 208] | 3.63 nM | 5.25 nM | 3.72 nM | 7.73 | 6.84 | > 10000 nM
5 | COc1cc(/N=c2\ccc3ncc(-c4cnn(C)c4)nc3n2CC2CCC(=O)N2CCO)c(F)c(OC)c1 (single isomer, unassigned) [Compound 219] | 0.813 nM | 2.24 nM | 1.29 nM | 8.72 | 7.77 | > 10000 nM
6 | COc1ccc(Cl)c(N(CC2CCC(=O)N2)c2ccc3ncc(-c4cnn(C)c4)nc3n2)c1Cl (stereo not drawn) [Compound 93] | 66.1 nM | 60.3 nM | 77.6 nM | 6.10 | 5.59 | > 10000 nM
7 | COc1cc(O)c(F)c(N(Cc2ncc[nH]2)c2ccc3ncc(-c4cnn(C)c4)nc3n2)c1 [Compound 96] | 0.741 nM | 1.58 nM | 1.07 nM | 8.75 | 8.08 | > 10000 nM
8 | COc1cc(OC)cc(N(Cc2ncc[nH]2)c2ccc3ncc(-c4cn[nH]c4)nc3n2)c1 [Compound 141] | 0.603 nM | 0.933 nM | 0.457 nM | 9.22 | 8.27 | > 10000 nM
9 | COc1cc(OC)cc(N(CC2COC2)c2ccc3ncc(-c4cnn(C)c4)nc3n2)c1 [Compound 142] | 16.2 nM | 7.94 nM | 5.75 nM | 7.52 | 5.49 | > 10000 nM
10 | COc1cc(/N=c2\ccc3ncc(-c4cnn(C)c4)nc3n2CC2COC2)c(F)c(OC)c1 [Compound 143] | 1.26 nM | 1.51 nM | 0.759 nM | 8.99 | 5.48 | > 10000 nM
11 | COc1cc(OC)c(F)c(N(CC2COC2)c2ccc3ncc(-c4cnn(C)c4)nc3n2)c1 [Compound 144] | 3.89 nM | 2.82 nM | 1.74 nM | 8.28 | 6.44 | > 10000 nM
12 | COc1cc(OC)c(F)c(N(Cc2nccn2CCO)c2ccc3ncc(-c4cnn(C)c4)nc3n2)c1 [Compound 145] | 3.24 nM | 3.8 nM | 4.68 nM | 7.98 | 7.26 | > 10000 nM
13 | COc1cc(OC)cc(N(CCN2CCOCC2)c2ccc3ncc(-c4cnn(C)c4)nc3n2)c1 [Compound 146] | 6.76 nM | 4.68 nM | 4.9 nM | 7.75 | 6.87 | > 10000 nM
14 | COc1cc(/N=c2\ccc3ncc(-c4cnn(C)c4)nc3n2CCN2CCOCC2)cc(OC)c1 [Compound 147] | 1.51 nM | 2.04 nM | 1.62 nM | 8.49 | 7.28 | > 10000 nM
15 | COc1cc(/N=c2\ccc3ncc(-c4cnn(C)c4)nc3n2CCN2CCOCC2)c(F)c(OC)c1 [Compound 148] | 1.7 nM | 1.91 nM | 1.26 nM | 8.79 | 7.58 | > 10000 nM
16 | COc1cc(OC)c(F)c(N(CCN2CCOCC2)c2ccc3ncc(-c4cnn(C)c4)nc3n2)c1 [Compound 149] | 2.45 nM | 3.09 nM | 2.63 nM | 8.29 | 7.45 | > 10000 nM
17 | COc1cc(OC)cc(N(CCN2CCCC2=O)c2ccc3ncc(-c4cnn(C)c4)nc3n2)c1 [Compound 151] | 38.9 nM | 15.1 nM | 10.7 nM | 7.04 | 5.56 | > 10000 nM
18 | COc1cc(OC)cc(N(Cc2ncc[nH]2)c2ccc3ncc(-c4ccccc4)nc3n2)c1 [Compound 152] | 1.07 nM | 1.48 nM | 1.15 nM | 8.85 | 7.96 | > 10000 nM
19 | COc1cc(/N=c2\ccc3ncc(-c4cnn(C)c4)nc3n2Cc2cn[nH]c2)c(F)c(OC)c1 [Compound 155] | 0.55 nM | 1.2 nM | 0.407 nM | 9.49 | 8.13 | > 10000 nM
20 | COc1cc(/N=c2\ccc3ncc(-c4cnn(C)c4)nc3n2CCN2CCCC2=O)c(F)c(OC)c1 [Compound 156] | 2.95 nM | 2.69 nM | 1.91 nM | 8.16 | 7.17 | > 10000 nM
21 | COc1cc(OC)c(F)c(N(CCN2CCCC2=O)c2ccc3ncc(-c4cnn(C)c4)nc3n2)c1 [Compound 157] | 10.5 nM | 6.31 nM | 5.62 nM | 7.58 | 6.17 | > 10000 nM
22 | COc1cc(/N=c2\ccc3ncc(-c4cnn(C)c4)nc3n2CC2CCC(=O)N2C)c(F)c(OC)c1 (stereo not drawn) [Compound 158] | 1.74 nM | 1.86 nM | 1.29 nM | 8.60 | 7.18 | > 10000 nM
23 | COc1cc(OC)c(F)c(N(CC2CCC(=O)N2C)c2ccc3ncc(-c4cnn(C)c4)nc3n2)c1 (stereo not drawn) [Compound 159] | 8.51 nM | 6.61 nM | 5.89 nM | 7.69 | 6.65 | > 10000 nM
24 | COc1cc(/N=c2\ccc3ncc(-c4cnn(C)c4)nc3n2CC2CCCOC2)cc(OC)c1 (stereo not drawn) [Compound 165] | 1.15 nM | 2.4 nM | 1.12 nM | 8.69 | 7.38 | > 10000 nM
25 | COc1cc(OC)cc(N(CC2CCCOC2)c2ccc3ncc(-c4cnn(C)c4)nc3n2)c1 (stereo not drawn) [Compound 166] | 5.62 nM | 3.16 nM | 2.63 nM | 8.03 | 6.72 | > 10000 nM
26 | COc1cc(/N=c2\ccc3ncc(-c4cnn(C)c4)nc3n2CCN)c(F)c(OC)c1 [Compound 167] | 1.86 nM | 2.19 nM | 2.09 nM | 8.38 | 6.74 | > 10000 nM
